For 43 compounds, ΔTm results are on record in ChEMBL document CHEMBL5724796, “Tm Shift (DSF) assay results for EUbOPEN Chemogenomics Library” (2024).

Structures are written as SMILES. Residues, ends and D or L forms follow the SMILES beside them. *: point of attachment. Cbz = O=C(OCc1ccccc1)*; CH2F = FC*

One experiment concerns the target T1, Peregrin (Homo sapiens) (UniProt P55201).
T1 sequence (whole entry): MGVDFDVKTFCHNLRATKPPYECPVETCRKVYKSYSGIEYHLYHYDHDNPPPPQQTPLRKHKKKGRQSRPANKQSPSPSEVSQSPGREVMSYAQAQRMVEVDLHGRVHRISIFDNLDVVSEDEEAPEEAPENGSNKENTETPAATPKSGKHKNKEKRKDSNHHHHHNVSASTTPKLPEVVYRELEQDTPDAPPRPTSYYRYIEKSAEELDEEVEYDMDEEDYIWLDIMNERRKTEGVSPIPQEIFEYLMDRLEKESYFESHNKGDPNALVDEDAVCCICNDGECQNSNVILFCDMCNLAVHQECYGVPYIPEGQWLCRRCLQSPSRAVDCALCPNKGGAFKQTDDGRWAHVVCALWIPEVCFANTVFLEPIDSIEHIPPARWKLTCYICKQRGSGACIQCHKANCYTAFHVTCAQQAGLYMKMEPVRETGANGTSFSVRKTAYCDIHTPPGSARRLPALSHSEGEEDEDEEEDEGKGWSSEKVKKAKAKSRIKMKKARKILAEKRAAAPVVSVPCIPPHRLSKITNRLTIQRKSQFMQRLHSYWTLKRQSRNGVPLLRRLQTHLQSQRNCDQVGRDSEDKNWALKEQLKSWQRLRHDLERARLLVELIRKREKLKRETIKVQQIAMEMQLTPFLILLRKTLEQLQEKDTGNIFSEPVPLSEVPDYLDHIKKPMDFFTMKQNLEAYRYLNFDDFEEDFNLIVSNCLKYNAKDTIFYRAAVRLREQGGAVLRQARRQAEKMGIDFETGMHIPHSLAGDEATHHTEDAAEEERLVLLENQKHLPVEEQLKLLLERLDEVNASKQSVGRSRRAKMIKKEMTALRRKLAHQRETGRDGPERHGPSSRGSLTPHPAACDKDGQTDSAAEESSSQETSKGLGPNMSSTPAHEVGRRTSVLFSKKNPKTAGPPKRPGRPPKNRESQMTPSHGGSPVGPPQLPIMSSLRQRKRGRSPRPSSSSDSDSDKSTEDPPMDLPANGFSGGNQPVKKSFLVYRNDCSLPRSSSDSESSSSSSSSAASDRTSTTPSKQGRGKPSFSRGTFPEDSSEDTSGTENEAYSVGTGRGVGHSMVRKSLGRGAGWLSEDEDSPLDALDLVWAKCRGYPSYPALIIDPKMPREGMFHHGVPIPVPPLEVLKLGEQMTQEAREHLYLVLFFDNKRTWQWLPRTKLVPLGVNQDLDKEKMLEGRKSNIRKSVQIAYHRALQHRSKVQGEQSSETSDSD
Particulars: Compound concentration 20.0 uM.

The target in experiment [1] is Fibroblast growth factor receptor 2 (Homo sapiens) (UniProt P21802). The following applies: Compound concentration 20.0 uM.
Fibroblast growth factor receptor 2 (Homo sapiens), sequence (P21802 22-821 limits assumed): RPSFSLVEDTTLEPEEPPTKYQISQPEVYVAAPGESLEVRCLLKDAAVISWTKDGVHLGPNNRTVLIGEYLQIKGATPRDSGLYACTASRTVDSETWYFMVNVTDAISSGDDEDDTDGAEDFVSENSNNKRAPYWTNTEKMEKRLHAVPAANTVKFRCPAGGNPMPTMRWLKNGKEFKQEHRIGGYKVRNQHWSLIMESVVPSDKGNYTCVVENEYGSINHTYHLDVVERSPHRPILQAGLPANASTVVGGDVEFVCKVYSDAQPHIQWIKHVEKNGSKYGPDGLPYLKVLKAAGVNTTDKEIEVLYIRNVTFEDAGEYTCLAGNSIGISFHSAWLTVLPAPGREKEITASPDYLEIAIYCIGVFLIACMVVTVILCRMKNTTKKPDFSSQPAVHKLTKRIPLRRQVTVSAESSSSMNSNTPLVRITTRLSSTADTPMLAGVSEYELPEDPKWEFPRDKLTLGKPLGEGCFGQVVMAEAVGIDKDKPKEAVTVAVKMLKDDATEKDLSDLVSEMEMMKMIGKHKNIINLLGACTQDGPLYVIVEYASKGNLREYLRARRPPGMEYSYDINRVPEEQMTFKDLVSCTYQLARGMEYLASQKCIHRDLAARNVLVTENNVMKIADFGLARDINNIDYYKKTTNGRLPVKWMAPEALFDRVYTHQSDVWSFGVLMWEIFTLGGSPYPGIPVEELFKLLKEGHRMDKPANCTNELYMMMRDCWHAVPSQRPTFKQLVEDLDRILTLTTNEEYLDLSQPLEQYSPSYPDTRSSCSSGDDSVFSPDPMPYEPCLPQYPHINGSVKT
Description: Thermal Shift Assay. Domain: start/stop: T457-E768

For `Cc1c(F)c(N)cc(C(=O)Nc2cc(-n3cc(C(=O)NCCCN4CCOCC4)nn3)ccc2N2CCN(C)CC2)c1Cl`, the ΔTm is -0.29 °C at Peregrin (Homo sapiens) and 0.03 °C in experiment [1].

`O=c1[nH]c(N2CCC3(CC2)CN(CCO)c2cc(F)cc(F)c23)nc2c1CCCC2`: the ΔTm at Peregrin (Homo sapiens) is 1.75 °C; in experiment [1] it was -0.52 °C.

`COc1ccc2c(c1)OC(C)(C)C(c1ccccc1)C2c1ccc(OCCN2CCCC2)cc1` (stereo unspecified): the shift in melting temperature (ΔTm) on Peregrin (Homo sapiens) is -2.59 °C; in experiment [1], 0.15 °C.

As for `Cc1cc(OCCCNCC(C)(C)C(N)=O)ccc1Cc1c(O[C@@H]2O[C@H](CO)[C@@H](O)[C@H](O)[C@H]2O)n[nH]c1C(C)C`, the thermal shift (ΔTm) on Peregrin (Homo sapiens) is 1.07 °C; in experiment [1] it was -0.15 °C.

Consider `O=C(c1cccc(-c2ccc(-c3cn(C(=O)N4CCCCC4c4ccccc4)nn3)cc2)c1)N1CCCCC1` (stereo unspecified), for which the ΔTm at Peregrin (Homo sapiens) turned out to be 3.63 °C; in experiment [1], 2.55 °C.

Consider `COc1ccc(CNc2nc(N3CCC[C@H]3CO)ncc2C(=O)NCc2ncccn2)cc1Cl`, for which the shift in melting temperature (ΔTm) on Peregrin (Homo sapiens) was 0.12 °C; in experiment [1], -0.2 °C.

Regarding `CNc1nccc(CN([C@H]2CC[C@H](N)CC2)S(=O)(=O)c2ccc(S(=O)(=O)N(Cc3ccc(Cl)cc3)C3CCCC3)cc2)n1`, the shift in melting temperature (ΔTm) on Peregrin (Homo sapiens) was -1.21 °C; in experiment [1] it was -1.14 °C.

Consider `COc1ccc(-c2ccc(-c3cn(C(=O)N4CCCCC4c4ccccc4)nn3)cc2)cc1` (stereo unspecified), for which the figures for the ΔTm (at Peregrin (Homo sapiens); in experiment [1]) were -1.62 °C and 0.03 °C, respectively.

With `Cn1ncc(-c2nn(C)c3ncnc(N4CCC4)c23)c1-c1ccc(C(F)(F)F)cc1`, the values for the thermal shift (ΔTm) (at Peregrin (Homo sapiens); in experiment [1]) were 3.7 °C and 0.04 °C, respectively.

As for `N#Cc1nc2c(nc1C#N)-c1ccccc1C2=NOCc1ccccc1`, the shift in melting temperature (ΔTm) was found to be 5.25 °C on Peregrin (Homo sapiens) and 0.78 °C in experiment [1].

As for `O=C(NCC1CCOCC1)c1n[nH]cc1NC(=O)c1c(F)cccc1F`, the ΔTm on Peregrin (Homo sapiens) was -1.34 °C; in experiment [1] it was 0.69 °C.

As to `COc1ccc(C(=O)C2CCN(CC(=O)N(Cc3nc4c(c(=O)[nH]3)COCC4)CC3CC3)CC2)cc1`, the thermal shift (ΔTm) is 2.73 °C at Peregrin (Homo sapiens) and -0.62 °C in experiment [1].

`CCOc1ccc(S(=O)(=O)Nc2ccc(Cl)cc2C#Cc2cnc(C(=O)O)cc2OC)c2ncccc12`: the thermal shift (ΔTm) is 0 °C on Peregrin (Homo sapiens) and 0.19 °C in experiment [1].

As for `CCn1c(=S)[nH]c2cc3c(NCc4ccccc4N4CCC(CO)CC4)ncnc3cc21`, the shift in melting temperature (ΔTm) at Peregrin (Homo sapiens) was 1.64 °C; in experiment [1] it was -0.06 °C.

As to `O=C(N1CCCC[C@H]1Cc1ccccc1)n1cc(-c2ccc(-c3ccccc3)cc2)nn1`, the values for the thermal shift (ΔTm) (on Peregrin (Homo sapiens); in experiment [1]) were 1 °C and 0.8 °C, respectively.

On to `CCCOc1ccc(NC(=O)CN2CCN(C)CC2)cc1-c1nc(CC)c(CC)c(=O)[nH]1`, for which the ΔTm is 1.24 °C on Peregrin (Homo sapiens) and -0.52 °C in experiment [1].

With `COC(=O)CC[C@H](NC(=O)[C@H](C)NC(=O)OCc1ccccc1)C(=O)N[C@H](C(=O)N[C@@H](CC(=O)OC)C(=O)CF)C(C)C` (Cbz-AE(OMe)VD(OMe)-CH2F), the ΔTm is -0.82 °C at Peregrin (Homo sapiens) and 0.54 °C in experiment [1].

For `CC1(C)CC[C@]2(C(=O)O)CC[C@]3(C)C(=CC[C@@H]4[C@@]5(C)C=C(O)C(=O)C(C)(C)[C@@H]5CC[C@]43C)[C@@H]2C1`, the ΔTm on Peregrin (Homo sapiens) stood at 2.32 °C; in experiment [1], 0 °C.

As for `C[C@@H](Oc1ccc(CNC(=O)c2cccnc2Oc2ccc3c(c2)OCO3)c(F)c1)C(=O)O`, the thermal shift (ΔTm) is 3.08 °C at Peregrin (Homo sapiens) and 0.14 °C in experiment [1].

Regarding `CC(=O)N[C@@H](C)C(=O)N[C@@H](CCC(=O)O)C(=O)N[C@H](C(=O)N[C@@H](C=O)CC(=O)O)C(C)C`, the ΔTm was -1.79 °C at Peregrin (Homo sapiens) and 0.19 °C in experiment [1].

With `O=C(CCl)Nc1ccc(S(=O)(=O)c2ccc(NC(=O)CCl)cc2)cc1`, the ΔTm at Peregrin (Homo sapiens) was found to be 0.78 °C; in experiment [1], 0.88 °C.

`Nc1ccccc1NC(=O)c1ccc(CNC(=O)OCc2cccnc2)cc1`: the shift in melting temperature (ΔTm) on Peregrin (Homo sapiens) was -0.57 °C; in experiment [1], 0.41 °C.

Regarding `C(=C\c1ccccc1)/CN1CCN(CCOC(c2ccccc2)c2ccccc2)CC1`, the thermal shift (ΔTm) at Peregrin (Homo sapiens) is 0.95 °C; in experiment [1], -0.04 °C.

Take `Cc1cc(/N=N/c2ccc3c(c2)CCC(=O)N3)c(N)cc1O`: the shift in melting temperature (ΔTm) on Peregrin (Homo sapiens) is 1.01 °C; in experiment [1], 0.16 °C.

In the case of `COC(=O)CC[C@H](NC(=O)[C@H](Cc1c[nH]c2ccccc12)NC(=O)OCc1ccccc1)C(=O)N[C@@H](Cc1cnc[nH]1)C(=O)N[C@@H](CC(=O)OC)C(=O)CF` (Cbz-WE(OMe)HD(OMe)-CH2F), the ΔTm at Peregrin (Homo sapiens) was -1.05 °C; in experiment [1], 0.1 °C.

Regarding `O=C(NCCCCc1ccccc1)n1c(=O)oc2cc(-c3ccc(F)cc3)ccc21`, the ΔTm at Peregrin (Homo sapiens) was 2.4 °C; in experiment [1] it was -0.32 °C.

Turning to `Nc1cc2c3c(c1)C(c1ccccc1)=N[C@@H](NC(=O)c1cccnc1)C(=O)N3CC2`, the figures for the ΔTm (at Peregrin (Homo sapiens); in experiment [1]) were 0.71 °C and 0.08 °C, respectively.

Consider `CCNC(=O)NCCSC[C@H]1O[C@@H](n2cnc3c(N)ncnc32)[C@H](O)[C@@H]1O`, for which the ΔTm is -1.31 °C on Peregrin (Homo sapiens) and 0.95 °C in experiment [1].

As for `CC(C)(C)OC(=O)Nc1ccc(CNc2nccc(Nc3cc(C(=O)OC(C)(C)C)[nH]n3)n2)cc1`, the ΔTm at Peregrin (Homo sapiens) was -1.32 °C; in experiment [1], 1.22 °C.

As for `CN1CC(=O)N2[C@H](c3ccc4c(c3)OCO4)c3[nH]c4ccccc4c3C[C@@H]2C1=O`, the shift in melting temperature (ΔTm) on Peregrin (Homo sapiens) is 0.06 °C; in experiment [1], -0.7 °C.

Regarding `CC(=O)N1CCC(c2ccc(C(=O)NC(=N)N)cc2C(F)(F)F)CC1`, the thermal shift (ΔTm) at Peregrin (Homo sapiens) was 1.3 °C; in experiment [1], 0.33 °C.

As for `COCCOCCn1nc2c(c1C)-c1c(Cl)ccc3c1c(C)c(C(=O)O)n3CCCOc1cc(cc3c(F)c(Cl)ccc13)CCc1cc(nn1C)CSC2`, the ΔTm on Peregrin (Homo sapiens) was 0 °C; in experiment [1], -5.22 °C.

In the case of `Cn1nc2c(=O)n(CC3(O)CCN(C(=O)C[C@H](c4ccccc4)C(F)(F)F)CC3)cnc2c1-c1ccc(CN)cc1`, the figures for the ΔTm (at Peregrin (Homo sapiens); in experiment [1]) were 1.89 °C and -0.7 °C, respectively.

Consider `COc1ccc(C(=O)N[C@H](C(=O)N2CCC[C@H]2C(=O)N[C@H](C(=O)C(F)(F)F)C(C)C)C(C)C)cc1`, for which the ΔTm at Peregrin (Homo sapiens) was determined as 0.8 °C; in experiment [1], 0.07 °C.

As to `Cc1cc(S(C)(=O)=O)c(S(C)(=O)=O)cc1C(=O)NC(=N)N`, the figures for the ΔTm (at Peregrin (Homo sapiens); in experiment [1]) were 2.74 °C and 0 °C, respectively.

Take `COC(=O)c1ccc(CN2CCC(O)(Cn3cnc4c(-c5ccc(CN)cc5)n(C)nc4c3=O)CC2)c(Cl)c1`: the results for the ΔTm (at Peregrin (Homo sapiens); in experiment [1]) were 1.55 °C and -0.37 °C, respectively.

For `O=C(NCc1ccc(F)cc1)C1CCN(S(=O)(=O)c2cc(Cl)cc(Cl)c2)CC1`, the shift in melting temperature (ΔTm) at Peregrin (Homo sapiens) came to 2.64 °C; in experiment [1] it was 0.75 °C.

For the compound `O=C1C(P(=O)(O)O)CCCN1O` (stereo unspecified), the ΔTm is -1.07 °C at Peregrin (Homo sapiens) and 0.23 °C in experiment [1].

Turning to `N=C(N)SCc1ccc(CN2C(=O)C(=O)c3cc(Br)cc(Br)c32)cc1`, the values for the shift in melting temperature (ΔTm) (at Peregrin (Homo sapiens); in experiment [1]) were -6.38 °C and -6.45 °C, respectively.

With `CCCc1nc(C)c2c(=O)nc(-c3cc(S(=O)(=O)N4CCN(CC)CC4)ccc3OCC)[nH]n12`, the figures for the thermal shift (ΔTm) (at Peregrin (Homo sapiens); in experiment [1]) were 1.02 °C and 0.41 °C, respectively.

For `CC(C)c1cc(C(=O)N2Cc3ccc(CN4CCN(C)CC4)cc3C2)c(O)cc1O`, the thermal shift (ΔTm) is -1.35 °C at Peregrin (Homo sapiens) and 0.44 °C in experiment [1].

On to `N#Cc1ccc(N2N=C3c4ccc(C(=O)O)cc4CC[C@@H]3[C@@H]2C2CCCC2)cc1Cl`, for which the ΔTm on Peregrin (Homo sapiens) was -8.37 °C; in experiment [1], -1.06 °C.

On to `O=C(Nc1ccc2[nH]nc(-c3ccncc3)c2c1)[C@@H]1CCN(CC(=O)N2CCN(c3ccc(-c4ncccn4)cc3)CC2)C1`, for which the ΔTm at Peregrin (Homo sapiens) was -0.34 °C; in experiment [1], 0.95 °C.
